Assays:
[1] = system: GABAA receptor; experiment: Experiment 2: regeneration of GABAA receptor responses in reactive astrocytes; format: cell-based, rat; settings: 14 DIV after serial passages, control 8 ± 6
Protocol: (§1) Preparation of astrocyte cultures: After removing the meninges, isolated cerebrum of neonatal rats (age: day 1) were placed on frosted glass-slides and minced. The sample was then digested with trypsin (0.25%) and DNase 1 (0.02%) and suspended in 10% FCS-DMEM before centrifugation. After resuspending in 10% FCS-DMEM, the suspension was dispersed in dishes and cultured at 37° C. under 5% CO2 atmosphere. Non-adherent cells were removed from the dishes after agitation/washing on post-culture 24 hours. Note that the adherent cell population was composed of more than 95% of GFAP-positive cells.
(§2) GFAP contents and GABAA receptor responses: The improvement effects on astrocyte functions were evaluated from the following indices: inhibition derived from the increase in GFAP content and inhibition in the disappearance of GABAA receptor responses. Thus, sodium valproate (Sigma Chem. Co., U.S.A.) was added on 1 DIV followed by whole-cell mode voltage-clamp method on 7 DIV-to measure the GABA (3×10^−5 M)-induced Cl^− current. The Cl^− current was taken as an index for the GABA response. Furthermore, GFAP contents were determined by the ELISA method on 11 DIV.
Astrocytes were prepared and cultured in a manner similar to Experiment 1. On 14 DIV, reactive astrocytes were subjected to a serial passage (10^5 cells/dish). The thus adherent reactive astrocytes were washed, and transferred to culture media containing the present effectively developed compound(s) or invention. On 14 DIV after serial passages, GABAA receptor responses were tested according to procedures designated in Experiment 1.

[2] = system: GABAA receptor; experiment: Experiment 1: GABAA receptor responses of cultured astrocytes (GABA-induced Cl- current, whole-cell voltage-clamp); format: cell-based, rat; settings: added on 1 DIV, measured on 7 DIV, GABA 3×10^−5 M-induced Cl− current, control 90 ± 43
Protocol: as §1, §2

[3] = system: neurons; experiment: Experiment 3: suppression of cell death in neurons-astrocytes co-culture; format: cell-based, rat; settings: 3 mM, neurons co-cultured with astrocytes
Protocol: Astrocytes, prepared in a manner similar to that of Experiment 1, were cultured for 14 days. Previously prepared neurons (3×10^4 cells/well), isolated from cerebrum of 19-day old fetus rats, were added to the cultured astrocytes (3×10^5 cells/well) and allowed to grow. During the culture process, survival rates and neuronal dendrite extension/ramification of neurons were observed. Note that, sodium valproate (3 mM) and astrocytes were initially added to the neurons concomitantly, and freshly prepared similar culture media containing the invented compound (3 mM) were subsequently added at 3˜4-day intervals.

[4] = system: astrocytes; experiment: Experiment 1: GFAP contents of cultured astrocytes (ELISA); format: cell-based, rat; settings: added on 1 DIV, ELISA on 11 DIV, ratio of the control group (control 100.0)
Protocol: as §1, §2
The GFAP contents were expressed as a ratio of the control group.

[5] = system: experimental brain ischemia model; experiment: Experiment 4: experimental brain ischemia, conditional avoidance experiment; format: in vivo, rat; settings: 300 mg/kg i.p. once daily for 4 days after deligation; 10 trials within 2 days; ischemic reference 2.8±0.8, normal 6.1±0.7, sham 4.8±0.8
Protocol: Establishing the experimental brain ischemia model: Vertebral arteries of pentobarbital-anesthetized rats were bilaterally coagulated, and a period of 7 days was allowed for recovery. The previously surgically exposed bilateral common carotid arteries of ischemic rats were mechanically ligated for 20 min. Immediately after deligation, the rats were once daily injected i.p. with sodium valproate (300 mg/kg) for 4 consecutive days. On deligation day 5˜6, mobility aspects in the conditional avoidance experiment were monitored.
Mobility aspects of the conditional avoidance experiment: The step-up model of the dark/light box was used. Animals placed in the dark section of the grid-floored box with the connecting door closed were allowed to accustomed to the environment for 1 minute. The door was then opened for 10 seconds. Rats that stepped up to the lighted section via the opened door were considered positive in the conditional avoidance test. Animals categorized as negative in the test were placed in the dark section with the door closed for 10 seconds prior to subjecting them to electric foot shock at 2 mA for 50 seconds. […] The above procedure was repeated 5 trials per day at 30-minutes intervals. A total of 10 trials within 2 days were attempted.

SMILES	GABAA receptor responses (means ± S.E.) ([1]; 0.3 mM) [pA]	GABAA receptor responses (means ± S.E.) ([1]; 1.0 mM) [pA]	GABAA receptor responses (means ± S.E.) ([1]; 3.0 mM) [pA]	other results
CCCCC(CCC)C(=O)[O-].[Na+] (centres unmarked) [Example 7(31)]	51 ± 28	565 ± 278	590 ± 180	–
CCCC(CCCCc1ccccc1)C(=O)[O-].[Na+] (centres unmarked) [Example 7(8)]	–	59.0 ± 20.6	–	–
CCCC[C@@H](CC)C(=O)O (racemic) [Example 11]	35 ± 15	190 ± 134	281 ± 174	–
CCCC(CCC1CCCCC1)C(=O)[O-].[Na+] (centres unmarked) [Example 7(4)]	163.0 ± 60.4	–	–	–
CCCC(CCCC(C)C)C(=O)[O-].[Na+] (centres unmarked) [Example 7(18)]	–	658.6 ± 440.7	–	–
CCCC(CCCF)C(=O)[O-].[Na+] (centres unmarked) [Example 2(5)]	–	–	326 ± 148	–
CCCCCC(CCC)C(=O)[O-].[Na+] (centres unmarked) [Example 7(30)]	233 ± 90	675 ± 201	–	–
CCCC(CCCCCF)C(=O)[O-].[Na+] (centres unmarked) [Example 7]	213.1 ± 150.1	661.7 ± 306.3	–	–
CC/C=C(\CCC)C(=O)[O-].[Na+] [Example 13]	–	–	171 ± 55	–
C=CCC(CCC)C(=O)[O-].[Na+] (centres unmarked) [Example 7(28)]	–	–	122 ± 44	–
CCCC(CCCCC(C)C)C(=O)[O-].[Na+] (centres unmarked) [Example 7(17)]	259.0 ± 83.7	–	–	–
CCCC(CCCCCC(F)(F)F)C(=O)[O-].[Na+] (centres unmarked) [Example 2(9)]	236.4 ± 85.5	–	–	–
CCCC(CCC(C)C)C(=O)[O-].[Na+] (centres unmarked) [Example 7(16)]	105 ± 65	417 ± 140	–	–
CCCC(CCCOc1ccccc1)C(=O)[O-].[Na+] (centres unmarked) [Example 7(9)]	512.1 ± 233.1	–	226.3 ± 60.5	–
CCCC(CCC)C(=O)[O-].[Na+] [VPA, sodium valproate]	37 ± 26	193 ± 141	1263 ± 303	GABAA receptor responses (means ± S.E.) ([2]; 0.3 mM): 254 ± 106 pA; GABAA receptor responses (means ± S.E.) ([2]; 1.0 mM): 432 ± 98 pA; GABAA receptor responses (means ± S.E.) ([2]; 3.0 mM): 1301 ± 156 pA; Survival rates (on 22 days) ([3]; control <10%): 60-70%^; dendrite generation in the neurons ([3]; not observed in control): detected; Ratio of increase in GFAP contents ([4]; 0.3 mM): 30.6%; Ratio of increase in GFAP contents ([4]; 1.0 mM): 36.3%; Ratio of increase in GFAP contents ([4]; 3.0 mM): 44.3%; conditional avoidance response, count (frequencies) [5]: 5.3±0.8
CCCC(CCCCCCF)C(=O)[O-].[Na+] (centres unmarked) [Example 7(1)]	260.0 ± 47.3	–	–	–
CCCCCOC(CCC)C(=O)[O-].[Na+] (centres unmarked) [Example 7(37)]	139 ± 52	–	595 ± 190	–
CCCC(CCCCF)C(=O)[O-].[Na+] (centres unmarked) [Example 2(6)]	184.0 ± 118.1	–	528.0 ± 160.2	–
CCCC(CCCCOC)C(=O)[O-].[Na+] (centres unmarked) [Example 7(14)]	–	–	285.7 ± 103.6	–
CCCC(CCC(F)(F)F)C(=O)[O-].[Na+] (centres unmarked) [Example 2(12)]	–	672 ± 242	1109 ± 227	–
CCCC(Cl)(CCC)C(=O)OC [Example 9]	–	–	467 ± 187	–
CCCC(CCCC(F)(F)F)C(=O)[O-].[Na+] (centres unmarked) [Example 2(8)]	–	470.6 ± 124.9	808.6 ± 325.4	–
CCCC(CCCCC(F)(F)F)C(=O)[O-].[Na+] (centres unmarked) [Example 2(10)]	800.0 ± 415.6	–	–	–
CCCCCCC(CCC)C(=O)[O-].[Na+] (centres unmarked) [Example 7(33)]	1260 ± 521	–	–	GABAA receptor responses (means ± S.E.) ([1]; 0.03 mM): 40 ± 23 pA; GABAA receptor responses (means ± S.E.) ([1]; 0.1 mM): 237 ± 69 pA
CCCC(CCCCCC(F)F)C(=O)[O-].[Na+] (centres unmarked) [Example 2(2)]	527 ± 201	–	–	GABAA receptor responses (means ± S.E.) ([1]; 0.1 mM): 114 ± 81 pA
CCCCCCCCC(CCC)C(=O)[O-].[Na+] (centres unmarked) [Example 7(32)]	–	–	–	GABAA receptor responses (means ± S.E.) ([1]; 0.1 mM): 48 ± 20 pA
CCCC(CCCCCCCF)C(=O)[O-].[Na+] (centres unmarked) [Example 7(2)]	730.0 ± 226.4	–	–	–
CCCC(C(=O)[O-])C1CCCCC1.[Na+] (centres unmarked) [Example 7(26)]	–	–	344.7 ± 342.5	–
CCCCCCCC(CCC)C(=O)O (centres unmarked) [Example 2-PNA, 2-propylnonanic acid]	380 ± 124	–	–	GABAA receptor responses (means ± S.E.) ([1]; 0.03 mM): 85 ± 41 pA; GABAA receptor responses (means ± S.E.) ([1]; 0.1 mM): 107 ± 50 pA
CCCC(CCCCC(F)F)C(=O)[O-].[Na+] (centres unmarked) [Example 2]	193 ± 103	628 ± 227	–	–

Source: patent US7569608B2, “Pentanoic acid derivatives” (Ono Pharmaceutical Co., Ltd., priority 1993, dated 2009)
